Assay results: ChEMBL document CHEMBL1139385, “Structural analysis of ARC-type inhibitor (ARC-1034) binding to protein kinase A catalytic subunit and rational design of bisubstrate analogue inhibitors of basophilic protein kinases” (J Med Chem, 2009)

How the values were obtained:
[1] = target: T1, cAMP-dependent protein kinase catalytic subunit alpha (Homo sapiens, UniProt P17612); assay: Binding affinity to PKA catalytic subunit alpha by fluorescence polarization assay
[2] = target: T1, cAMP-dependent protein kinase catalytic subunit alpha; assay: Inhibition of PKA catalytic subunit alpha using 100 uM ATP and 30 uM TAMRA-kemptide substrate by fluorometric TLC assay
[3] = target: RAC-gamma serine/threonine-protein kinase (Homo sapiens, UniProt Q9Y243); assay: Inhibition of PKBgamma using 100 uM ATP and 30 uM TAMRA-kemptide substrate by fluorometric TLC assay
[4] = target: Rho-associated protein kinase 2 (Bos taurus) (UniProt Q28021); assay: Binding affinity to ROCK2 by fluorescence polarization assay
Chain of Rho-associated protein kinase 2 (Bos taurus) (Q28021 whole entry, looked up): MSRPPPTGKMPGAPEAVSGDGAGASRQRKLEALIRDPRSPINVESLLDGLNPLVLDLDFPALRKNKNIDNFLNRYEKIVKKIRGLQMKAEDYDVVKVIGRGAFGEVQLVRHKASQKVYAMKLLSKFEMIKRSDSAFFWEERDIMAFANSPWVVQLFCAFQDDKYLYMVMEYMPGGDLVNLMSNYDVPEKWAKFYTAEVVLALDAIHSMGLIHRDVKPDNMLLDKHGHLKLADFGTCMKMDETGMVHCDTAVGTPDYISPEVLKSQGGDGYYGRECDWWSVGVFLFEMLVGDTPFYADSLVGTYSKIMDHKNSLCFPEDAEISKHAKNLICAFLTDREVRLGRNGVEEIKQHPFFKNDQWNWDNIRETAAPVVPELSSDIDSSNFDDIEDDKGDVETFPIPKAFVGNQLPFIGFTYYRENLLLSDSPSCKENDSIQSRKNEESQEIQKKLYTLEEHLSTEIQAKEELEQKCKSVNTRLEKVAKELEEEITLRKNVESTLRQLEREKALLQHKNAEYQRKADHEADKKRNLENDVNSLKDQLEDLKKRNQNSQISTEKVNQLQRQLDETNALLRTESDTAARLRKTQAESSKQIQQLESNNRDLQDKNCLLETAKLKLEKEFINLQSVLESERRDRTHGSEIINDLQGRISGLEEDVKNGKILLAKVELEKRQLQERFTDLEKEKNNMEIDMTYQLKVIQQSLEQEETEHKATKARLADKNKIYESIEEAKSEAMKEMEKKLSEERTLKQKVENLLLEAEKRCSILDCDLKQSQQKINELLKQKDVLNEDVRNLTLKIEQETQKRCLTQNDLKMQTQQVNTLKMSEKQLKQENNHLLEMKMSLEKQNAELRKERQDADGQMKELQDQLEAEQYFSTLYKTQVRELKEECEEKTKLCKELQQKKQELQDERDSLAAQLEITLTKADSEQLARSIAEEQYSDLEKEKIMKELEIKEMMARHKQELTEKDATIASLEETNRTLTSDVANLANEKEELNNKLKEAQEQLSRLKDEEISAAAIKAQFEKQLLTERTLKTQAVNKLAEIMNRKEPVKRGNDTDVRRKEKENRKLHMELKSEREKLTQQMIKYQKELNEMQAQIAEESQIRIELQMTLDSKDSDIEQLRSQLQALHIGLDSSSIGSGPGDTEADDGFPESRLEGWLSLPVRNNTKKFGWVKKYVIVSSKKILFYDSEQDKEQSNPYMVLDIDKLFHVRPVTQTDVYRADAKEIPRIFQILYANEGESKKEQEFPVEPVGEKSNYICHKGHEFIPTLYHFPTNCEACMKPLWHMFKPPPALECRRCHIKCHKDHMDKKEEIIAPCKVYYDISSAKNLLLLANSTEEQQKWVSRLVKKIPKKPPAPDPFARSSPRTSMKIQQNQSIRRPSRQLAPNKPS

Chain of RAC-gamma serine/threonine-protein kinase (Q9Y243 whole entry): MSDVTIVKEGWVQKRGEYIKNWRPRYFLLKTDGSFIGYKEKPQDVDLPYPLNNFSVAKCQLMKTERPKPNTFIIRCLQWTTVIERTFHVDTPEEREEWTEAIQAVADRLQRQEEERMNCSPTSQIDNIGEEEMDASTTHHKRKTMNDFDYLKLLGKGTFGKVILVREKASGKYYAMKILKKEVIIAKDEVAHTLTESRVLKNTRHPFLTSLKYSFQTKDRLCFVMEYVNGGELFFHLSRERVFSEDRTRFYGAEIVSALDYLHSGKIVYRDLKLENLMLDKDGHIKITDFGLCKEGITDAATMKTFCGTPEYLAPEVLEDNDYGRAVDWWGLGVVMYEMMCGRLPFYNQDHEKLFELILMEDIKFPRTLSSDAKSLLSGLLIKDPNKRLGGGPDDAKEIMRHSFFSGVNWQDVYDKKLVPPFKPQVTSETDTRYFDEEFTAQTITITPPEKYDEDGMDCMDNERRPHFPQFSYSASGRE

| SMILES | Kd [1] | IC50 [2] | IC50 [3] | Kd [4] |
| --- | --- | --- | --- | --- |
| Nc1ncnc2c1ncn2[C@@H]1O[C@H](C(=O)NCCCCCC(=O)NCc2ccccc2)[C@@H](O)[C@H]1O | 13.5 µM | – | – | – |
| NCCCNC(=O)CCCCCNC(=O)[C@H]1O[C@@H](n2cnc3c(N)ncnc32)[C@H](O)[C@@H]1O | 6.05 µM | – | – | – |
| Nc1ncnc2c1ncn2[C@@H]1O[C@H](C(=O)NCCCCCC(=O)O)[C@@H](O)[C@H]1O | 55.8 µM | – | – | – |
| C[C@@H](NC(=O)CCCCCNC(=O)[C@@H]1C[C@@H](O)[C@H](n2cnc3c(N)ncnc32)C1)C(=O)NCCCCCC(=O)N[C@H](CCCNC(=N)N)C(=O)N[C@H](CCCNC(=N)N)C(N)=O | 0.0018 µM | 0.0211 µM | 2.04 µM | 0.187 µM |
| C[C@@H](NC(=O)CCCCCNC(=O)[C@H]1O[C@@H](n2cnc3c(N)ncnc32)[C@H](O)[C@@H]1O)C(=O)NCCCCCC(=O)N[C@H](CCCN=C(N)N)C(=O)N[C@H](CCCN=C(N)N)C(N)=O | 0.0058 µM | 0.097 µM | 3.75 µM | 0.119 µM |
| NC(=O)CCCNC(=O)OC[C@H]1O[C@@H](n2cnc3c(N)ncnc32)[C@H](O)[C@@H]1O | 98.7 µM | – | – | – |
| N=C(N)NCCC[C@@H](NC(=O)[C@@H](CCCNC(=N)N)NC(=O)CCCCCCCNC(=O)[C@@H](CCCCN)NC(=O)CCCCCNC(=O)[C@H]1O[C@@H](n2cnc3c(N)ncnc32)[C@H](O)[C@@H]1O)C(N)=O | 0.0095 µM | – | – | – |
| NC(=O)[C@@H](CCCN=C(N)N)NC(=O)[C@@H](CCCN=C(N)N)NC(=O)CCCCCNC(=O)[C@H]1O[C@@H](n2cnc3c(N)ncnc32)[C@H](O)[C@@H]1O | – | 2.6 µM | – | – |
| NCCCC[C@@H](NC(=O)CCCCCNC(=O)[C@H]1O[C@@H](n2cnc3c(N)ncnc32)[C@H](O)[C@@H]1O)C(=O)NCCCCCC(=O)N[C@H](CCCN=C(N)N)C(=O)N[C@H](CCCN=C(N)N)C(=O)N[C@H](CCCN=C(N)N)C(=O)N[C@H](CCCN=C(N)N)C(N)=O | 0.0005 µM | 0.0134 µM | 0.0566 µM | < 0.001 µM |
| NC(=O)[C@@H](CCCN=C(N)N)NC(=O)CCCCCNC(=O)[C@H]1O[C@@H](n2cnc3c(N)ncnc32)[C@H](O)[C@@H]1O | 0.249 µM | 2.1 µM | 1.61 µM | 0.0897 µM |
| NCCCC[C@@H](NC(=O)CCCCCNC(=O)[C@H]1O[C@@H](n2cnc3c(N)ncnc32)[C@H](O)[C@@H]1O)C(N)=O | 0.443 µM | – | – | – |
| N=C(N)NCCC[C@@H](NC(=O)[C@@H](CCCNC(=N)N)NC(=O)CCCNC(=O)CCCCCNC(=O)[C@H]1O[C@@H](n2cnc3c(N)ncnc32)[C@H](O)[C@@H]1O)C(N)=O | 0.247 µM | – | – | – |
| NCCCC[C@@H](NC(=O)CCCCCNC(=O)[C@H]1O[C@@H](n2cnc3c(N)ncnc32)[C@H](O)[C@@H]1O)C(=O)NCCCCCC(=O)N[C@@H](CCCN=C(N)N)C(=O)N[C@@H](CCCN=C(N)N)C(N)=O | 0.0087 µM | – | – | – |
| NCCCC[C@@H](NC(=O)CCCCCNC(=O)[C@H]1O[C@@H](n2cnc3c(N)ncnc32)[C@H](O)[C@@H]1O)C(=O)NCCCCCC(=O)N[C@H](CCCN=C(N)N)C(=O)N[C@H](CCCN=C(N)N)C(N)=O | 0.0076 µM | 0.054 µM | 0.774 µM | 0.0014 µM |
| NC(=O)[C@@H](CCCN=C(N)N)NC(=O)[C@@H](CCCN=C(N)N)NC(=O)CCCCCNC(=O)CCCCCNC(=O)[C@H]1O[C@@H](n2cnc3c(N)ncnc32)[C@H](O)[C@@H]1O | 0.083 µM | – | – | – |
| NC(=O)CCCCCNC(=O)OC[C@H]1O[C@@H](n2cnc3c(N)ncnc32)[C@H](O)[C@@H]1O | 52.1 µM | – | – | – |
| NC(=O)[C@H](Cc1ccc(C(=O)c2ccccc2)cc1)NC(=O)CCCCCNC(=O)[C@H]1O[C@@H](n2cnc3c(N)ncnc32)[C@H](O)[C@@H]1O | > 100 µM | – | – | – |
| NC(=O)[C@@H](CCCN=C(N)N)NC(=O)[C@@H](CCCN=C(N)N)NC(=O)CCCCCCCNC(=O)CCCCCNC(=O)[C@H]1O[C@@H](n2cnc3c(N)ncnc32)[C@H](O)[C@@H]1O | 0.0954 µM | – | – | – |
| NCCCCNC(=O)CCCCCNC(=O)[C@H]1O[C@@H](n2cnc3c(N)ncnc32)[C@H](O)[C@@H]1O | 1.64 µM | – | – | – |
| NCCNC(=O)CCCCCNC(=O)[C@H]1O[C@@H](n2cnc3c(N)ncnc32)[C@H](O)[C@@H]1O | 8.23 µM | – | – | – |
| Nc1ncnc2c1ncn2[C@@H]1O[C@H](C(=O)NCCCCCC(=O)NCCO)[C@@H](O)[C@H]1O | 18.7 µM | – | – | – |
| NC(=O)[C@@H](Cc1ccc(C(=O)c2ccccc2)cc1)NC(=O)CCCCCNC(=O)[C@H]1O[C@@H](n2cnc3c(N)ncnc32)[C@H](O)[C@@H]1O | 1.96 µM | – | – | – |
| NCCCC[C@H](NC(=O)CCCCCNC(=O)[C@H]1O[C@@H](n2cnc3c(N)ncnc32)[C@H](O)[C@@H]1O)C(=O)NCCCCCC(=O)N[C@H](CCCN=C(N)N)C(=O)N[C@H](CCCN=C(N)N)C(N)=O | 0.594 µM | – | – | – |
| NC(=O)CCCCCNC(=O)[C@H]1O[C@@H](n2cnc3c(N)ncnc32)[C@H](O)[C@@H]1O | 2.18 µM | 26 µM | > 1000 µM | 4.48 µM |
| NCCCC[C@@H](NC(=O)CCCCCNC(=O)[C@H]1O[C@@H](n2cnc3c(N)ncnc32)[C@H](O)[C@@H]1O)C(=O)NCCCC(=O)N[C@H](CCCN=C(N)N)C(=O)N[C@H](CCCN=C(N)N)C(N)=O | 0.0126 µM | – | – | – |
